This note sets out measurements from the NIST ThermoML archive (doi:10.1021/je800070y).

For this data set the following is noted: Liquid, Rate of evaporation.

Numbers after ± are expanded uncertainties.

As usually defined, the vapor or sublimation pressure is the pressure of vapour in equilibrium with the condensed phase. With `OCC(O)CO` [glycerol], the “vapor or sublimation pressure” value reads like this: (463.15 K) 3.85 ± 0.3 kPa; (483.15 K) 8.64 ± 0.67 kPa; (503.15 K) 17.9 ± 1.4 kPa; (523.15 K) 34.5 ± 2.7 kPa; (543.15 K) 62.6 ± 4.8 kPa.
Consider `OC[C@@H](O)[C@@H](O)[C@H](O)[C@@H](O)CO` [D-sorbitol], for which the “vapor or sublimation pressure” value (523.15 K) is given as 1.31 ± 0.1 kPa; the “vapor or sublimation pressure” value (548.15 K) turned out to be 4.49 ± 0.35 kPa; the “vapor or sublimation pressure” value (573.15 K) was 12.3 ± 1 kPa; the “vapor or sublimation pressure” value (598.15 K) worked out at 30 ± 2.3 kPa; the “vapor or sublimation pressure” value (623.15 K) worked out at 65 ± 5 kPa.
